Test results reported in doi:10.1101/2023.08.31.555680v1 (biorxiv, 2023).

Columns and labels:
[1] = biological target: RspA-splitFAST (assembled NC complex; FRB-RspA(N) + FKBP-RspA(C)); settings: read-out: Kd,F/C; […] each FRB-N and FKBP-C preassembled with […] rapamycin
[2] = biological target: TsiA-FAST; settings: PBS pH […] presumably; details in supplement
[3] = biological target: RspA-FAST; settings: PBS pH […] presumably; details in supplement

SMILES | Kd [1] [nM] | Kd [2] [nM] | Kd [3] [nM]
Cc1cc(/C=C2\SC(=S)NC2=O)ccc1O [HMBR] | 150 ± 10 | – | –
COc1cc(/C=C2\SC(=S)NC2=O)cc(OC)c1O [HBR-3,5DOM] | – | 60 | 74
